Measurements published in PubChem BioAssay AID2060498 (Molecular Pharmacology Branch, DTP, NCI, 2025).
pIC50: −log10 of the molar value.

System: 171881-019-R-J1-PDC tumor spheroids, viability
Experiment: Anticancer human tumor 171881-019-R-J1-PDC patient-derived invasive breast carcinoma cell line growth inhibition [GQUAD]
Conditions: spheroids with HUVEC and MSC; for pIC50: curve of first compound; for viability, T/C: stronger effect = lower value
Method in brief: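 Viability of tumor cells grown as complex spheroids with endothelial and stromal cells, exposed to drug combinations. Top concentration at or near clinical Cmax (else 10 microM), diluted in half-log increments.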

[1] = second compound 0.0316 µM, first compound 0.0316 µM
[2] = second compound 0.0316 µM, first compound 0.1 µM
[3] = second compound 0.0316 µM, first compound 0.316 µM
[4] = second compound 0.0316 µM, first compound 1 µM
[5] = second compound 0.0316 µM, first compound 3.16 µM
[6] = second compound 0.0316 µM, first compound 10 µM
[7] = second compound 0.1 µM, first compound 0.0316 µM
[8] = second compound 0.1 µM, first compound 0.1 µM
[9] = second compound 0.1 µM, first compound 0.316 µM
[10] = second compound 0.1 µM, first compound 1 µM
[11] = second compound 0.1 µM, first compound 3.16 µM
[12] = second compound 0.1 µM, first compound 10 µM
[13] = second compound 0.316 µM, first compound 0.0316 µM
[14] = second compound 0.316 µM, first compound 0.1 µM
[15] = second compound 0.316 µM, first compound 0.316 µM
[16] = second compound 0.316 µM, first compound 1 µM
[17] = second compound 0.316 µM, first compound 3.16 µM
[18] = second compound 0.316 µM, first compound 10 µM
[19] = second compound 1 µM, first compound 0.0316 µM
[20] = second compound 1 µM, first compound 0.1 µM
[21] = second compound 1 µM, first compound 0.316 µM
[22] = second compound 1 µM, first compound 1 µM
[23] = second compound 1 µM, first compound 3.16 µM
[24] = second compound 1 µM, first compound 10 µM
[25] = second compound 3.16 µM, first compound 0.0316 µM
[26] = second compound 3.16 µM, first compound 0.1 µM
[27] = second compound 3.16 µM, first compound 0.316 µM
[28] = second compound 3.16 µM, first compound 1 µM
[29] = second compound 3.16 µM, first compound 3.16 µM
[30] = second compound 3.16 µM, first compound 10 µM
[31] = second compound 10 µM, first compound 0.0316 µM
[32] = second compound 10 µM, first compound 0.1 µM
[33] = second compound 10 µM, first compound 0.316 µM
[34] = second compound 10 µM, first compound 1 µM
[35] = second compound 10 µM, first compound 3.16 µM
[36] = second compound 10 µM, first compound 10 µM
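Wherever viability, T/C is given: 100% = DMSO vehicle control viability.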

## C=CCn1c(=O)c2cnc(Nc3ccc(N4CCN(C)CC4)cc3)nc2n1-c1cccc(C(C)(C)O)n1 + Cc1[nH]c2ccc(F)cc2c1-c1nc2c3cccnc3c3ncccc3c2[nH]1
Second compound 0.0316 µM
  pIC50: 6.20
Second compound 0.1 µM
  pIC50: 6.23
Second compound 0.316 µM
  pIC50: 6.43
Second compound 1 µM
  pIC50: 6.88
Second compound 3.16 µM
  pIC50: > 7.50
Second compound 10 µM
  pIC50: > 7.50
[1]
  viability, T/C: 91.2%
[2]
  viability, T/C: 94%
[3]
  viability, T/C: 77%
[4]
  viability, T/C: 31.3%
[5]
  viability, T/C: 21.4%
[6]
  viability, T/C: 23.4%
[7]
  viability, T/C: 103%
[8]
  viability, T/C: 86%
[9]
  viability, T/C: 68.1%
[10]
  viability, T/C: 36.7%
[11]
  viability, T/C: 20.5%
[12]
  viability, T/C: 23.2%
[13]
  viability, T/C: 78.3%
[14]
  viability, T/C: 65.4%
[15]
  viability, T/C: 56%
[16]
  viability, T/C: 28.1%
[17]
  viability, T/C: 23.1%
[18]
  viability, T/C: 25%
[19]
  viability, T/C: 68.1%
[20]
  viability, T/C: 51.4%
[21]
  viability, T/C: 42.5%
[22]
  viability, T/C: 25.5%
[23]
  viability, T/C: 23.4%
[24]
  viability, T/C: 21.3%
[25]
  viability, T/C: 11.4%
[26]
  viability, T/C: 5.61%
[27]
  viability, T/C: 5.52%
[28]
  viability, T/C: 4.19%
[29]
  viability, T/C: 5.08%
[30]
  viability, T/C: 4.35%
[31]
  viability, T/C: 43.9%
[32]
  viability, T/C: 30.7%
[33]
  viability, T/C: 23.1%
[34]
  viability, T/C: 17.5%
[35]
  viability, T/C: 15.7%
[36]
  viability, T/C: 13.6%

## CC(C)n1c(=O)n(C)c2cnc3cc(F)c(-c4ccc(OCCCN5CCCCC5)nc4)cc3c21 + Cc1cnc(CNC(=O)c2c(=O)c3ccc(N4CCCN(C)CC4)nc3n3c2sc2ccccc23)cn1
Second compound 0.0316 µM
  pIC50: 5.99
Second compound 0.1 µM
  pIC50: 5.76
Second compound 0.316 µM
  pIC50: 5.73
Second compound 1 µM
  pIC50: 5.47
Second compound 3.16 µM
  pIC50: 5.43
Second compound 10 µM
  pIC50: 5.49
[1]
  viability, T/C: 63.7%
[2]
  viability, T/C: 56.6%
[3]
  viability, T/C: 59.6%
[4]
  viability, T/C: 48.2%
[5]
  viability, T/C: 39.1%
[6]
  viability, T/C: 16.1%
[7]
  viability, T/C: 62.4%
[8]
  viability, T/C: 62.2%
[9]
  viability, T/C: 58.6%
[10]
  viability, T/C: 55.9%
[11]
  viability, T/C: 43.8%
[12]
  viability, T/C: 17.4%
[13]
  viability, T/C: 66.6%
[14]
  viability, T/C: 65%
[15]
  viability, T/C: 60.5%
[16]
  viability, T/C: 58.9%
[17]
  viability, T/C: 43.3%
[18]
  viability, T/C: 20.8%
[19]
  viability, T/C: 66.7%
[20]
  viability, T/C: 63.5%
[21]
  viability, T/C: 66.5%
[22]
  viability, T/C: 57.7%
[23]
  viability, T/C: 53.2%
[24]
  viability, T/C: 25.4%
[25]
  viability, T/C: 62.1%
[26]
  viability, T/C: 63%
[27]
  viability, T/C: 66.5%
[28]
  viability, T/C: 60.7%
[29]
  viability, T/C: 53.1%
[30]
  viability, T/C: 28.2%
[31]
  viability, T/C: 61.8%
[32]
  viability, T/C: 64.2%
[33]
  viability, T/C: 61.7%
[34]
  viability, T/C: 58.7%
[35]
  viability, T/C: 50.4%
[36]
  viability, T/C: 25.3%

## COc1cc(C2c3cc4c(cc3C(OC3OC5COC(C)OC5C(O)C3O)C3COC(=O)C23)OCO4)cc(OC)c1O (stereo not drawn) + Cc1cnc(CNC(=O)c2c(=O)c3ccc(N4CCCN(C)CC4)nc3n3c2sc2ccccc23)cn1
Second compound 0.0316 µM
  pIC50: 6.15
Second compound 0.1 µM
  pIC50: 6.04
Second compound 0.316 µM
  pIC50: 5.97
Second compound 1 µM
  pIC50: 5.90
Second compound 3.16 µM
  pIC50: 5.87
Second compound 10 µM
  pIC50: 5.85
[1]
  viability, T/C: 94.5%
[2]
  viability, T/C: 79.3%
[3]
  viability, T/C: 63.4%
[4]
  viability, T/C: 42.5%
[5]
  viability, T/C: 31.4%
[6]
  viability, T/C: 17.4%
[7]
  viability, T/C: 83.7%
[8]
  viability, T/C: 75.2%
[9]
  viability, T/C: 60.5%
[10]
  viability, T/C: 52.3%
[11]
  viability, T/C: 30.6%
[12]
  viability, T/C: 16.7%
[13]
  viability, T/C: 69.9%
[14]
  viability, T/C: 74.2%
[15]
  viability, T/C: 59.9%
[16]
  viability, T/C: 49.5%
[17]
  viability, T/C: 36.7%
[18]
  viability, T/C: 18.1%
[19]
  viability, T/C: 65.4%
[20]
  viability, T/C: 61%
[21]
  viability, T/C: 59.1%
[22]
  viability, T/C: 53.3%
[23]
  viability, T/C: 39.9%
[24]
  viability, T/C: 19.3%
[25]
  viability, T/C: 60.3%
[26]
  viability, T/C: 60.2%
[27]
  viability, T/C: 60%
[28]
  viability, T/C: 53.3%
[29]
  viability, T/C: 39.7%
[30]
  viability, T/C: 20.9%
[31]
  viability, T/C: 58%
[32]
  viability, T/C: 57.7%
[33]
  viability, T/C: 52.9%
[34]
  viability, T/C: 55%
[35]
  viability, T/C: 39%
[36]
  viability, T/C: 21.1%

## CC(=O)O[C@H]1C(=O)[C@@]2(C)[C@H]([C@H](OC(=O)c3ccccc3)[C@]3(O)C[C@H](OC(=O)[C@H](O)[C@@H](NC(=O)c4ccccc4)c4ccccc4)C(C)=C1C3(C)C)[C@]1(OC(C)=O)CO[C@@H]1C[C@@H]2O + Cc1[nH]c2ccc(F)cc2c1-c1nc2c3cccnc3c3ncccc3c2[nH]1
Second compound 0.0316 µM
  pIC50: > 7.50
Second compound 0.1 µM
  pIC50: 7.43
Second compound 0.316 µM
  pIC50: 7.49
Second compound 1 µM
  pIC50: > 7.50
Second compound 3.16 µM
  pIC50: > 7.50
Second compound 10 µM
  pIC50: > 7.50
[1]
  viability, T/C: 52.2%
[2]
  viability, T/C: 32.3%
[3]
  viability, T/C: 35.5%
[4]
  viability, T/C: 30.8%
[5]
  viability, T/C: 28.9%
[6]
  viability, T/C: 30.1%
[7]
  viability, T/C: 52.5%
[8]
  viability, T/C: 33.2%
[9]
  viability, T/C: 29.5%
[10]
  viability, T/C: 31%
[11]
  viability, T/C: 28.3%
[12]
  viability, T/C: 28.7%
[13]
  viability, T/C: 50.2%
[14]
  viability, T/C: 35.5%
[15]
  viability, T/C: 28.8%
[16]
  viability, T/C: 29.5%
[17]
  viability, T/C: 29.7%
[18]
  viability, T/C: 26.8%
[19]
  viability, T/C: 41.2%
[20]
  viability, T/C: 30.2%
[21]
  viability, T/C: 32.1%
[22]
  viability, T/C: 24.9%
[23]
  viability, T/C: 29.7%
[24]
  viability, T/C: 24.6%
[25]
  viability, T/C: 6.75%
[26]
  viability, T/C: 4.71%
[27]
  viability, T/C: 4.42%
[28]
  viability, T/C: 3.51%
[29]
  viability, T/C: 5.16%
[30]
  viability, T/C: 3.23%
[31]
  viability, T/C: 27.3%
[32]
  viability, T/C: 25.1%
[33]
  viability, T/C: 17.3%
[34]
  viability, T/C: 21.1%
[35]
  viability, T/C: 23.2%
[36]
  viability, T/C: 18.3%
